Assay results taken from patent US11015169B2, “Culture medium for pluripotent stem cells” (Kyoto University, priority 2014, dated 2021).

Columns and labels:
Type in all cases: cell-based
[1] = system: Human ES cell lines KhES-1; test: Subculture of human ES cells in medium comprising a GSK3β inhibitor and a DYRK inhibitor, cell observation; conditions: KhES-1, no feeder cells, vitronectin-N-coated dish; for maintenance of the ES cells (stability), among the GSK3β inhibitors: combined with DYRK inhibitor ID-8 500 nM, 1-azakenpaullone 750 nM, kenpaullone 500 nM
Protocol: 25 mL of a solution in which a powder DMEM/F-12 medium (D0547, produced by Sigma-Aldrich) had been diluted two-fold with water, 1.4 mL of 6% sodium hydrogen carbonate solution, 0.75 mL of 1 M HEPES solution, 0.045 mL of 0.23 M ascorbic acid solution, 0.9 ML of ITS (Insulin-Transferrin-Selenium: 1 mg/ml-0.55 mg/ml-0.7 μg/ml) solution (ITS-G 41400-045, produced by Life Technologies), and 16.905 mL of water were mixed to obtain 45 mL of basal medium (340 mOsm, pH 7.2 to 7.5).
A GSK3β inhibitor (1-azakenpaullone (A3734, produced by Sigma-Aldrich), kenpaullone (1094-1, produced by BioVision), CHIR99021 (1386, produced by Axon Medchem), or BIO (B1686, produced by Sigma-Aldrich)), and a DYRK inhibitor (ID-8 (11786, produced by Sigma-Aldrich), harmine (Ser. No. 10/010,324, produced by Cayman Chemical), an indirubin analog 716 (6i) (ACS Medicinal Chemistry Letters, 2013, vol. 4, no. 1, pp. 22-26), INDY (405273, produced by Merck Millipore Corporation), L41 (MR-00023, produced by AdipoGen), or TG003 (4336, produced by R&D Systems)) were each added singly or in combination to the basal medium to thereby obtain a medium. The following are final concentrations in the medium.
Human ES cell lines KhES-1 (provided by Riken BioResource Center) were subcultured in the above medium. More specific details are below. The following culture was performed in the absence of feeder cells in a dish (vitronectin-N-coated dish) in which coating treatment was performed overnight using 1 μg of vitronectin-N (A14700 produced by Life Technologies) per 1 cm^2 of the culture dish.
ES cell colonies cultured in accordance with a standard method using a general-purpose medium for human ES cells (20% knockout serum replacement (10828-028, produced by Life Technology), 4 ng/ml of FGF2 (100-18B, produced by Peprotech)/DMEM/F-12 medium (11330-032, produced by Life Technology)) were rinsed once with PBS. A dispase solution (10 mg/ml dispase (Ser. No. 17/105,041, produced by Life Technologies)/DMEM/F-12) was added thereto so as to cover the cells, followed by being left to stand for 5 minutes. […]

[2] = system: Human ES cell lines KhES-1; test: Subculture and cell observation in medium further comprising an NFAT inhibitor; conditions: tacrolimus added in addition to azakenpaullone and ID-8, FIG. 3A
Protocol: (§1) A medium further comprising an NFAT inhibitor (tacrolimus (FK-506) (1007965, produced by Cayman Chemical)), in addition to a GSK3β inhibitor (1-azakenpaullone or kenpaullone) and a DYRK inhibitor (ID-8), was prepared as in Example 1. Using this medium, subculture and cell observation were performed as in Example 1. Separately from this, passage P1 was performed using this medium, as in Example 1, followed by culturing for 6 days without performing passage. Thereafter, the number of the cells was counted in accordance with a standard method, and, based on the counted number of cells, how many times the number of the cells increased within 6 days was calculated.

[3] = system: Human ES cell lines KhES-1; test: Fold increase of cells within 6 days without passage
Protocol: as §1

In the case of O=C1Cc2c([nH]c3ccc(Br)cc23)-c2ccccc2N1 [kenpaullone], the “maintenance of the ES cells (stability), among the GSK3β inhibitors” value [1] is reported as “most stable manner”.

For C=CC[C@@H]1/C=C(\C)C[C@H](C)C[C@H](OC)[C@H]2O[C@@](O)(C(=O)C(=O)N3CCCC[C@H]3C(=O)O[C@H](/C(C)=C/[C@@H]3CC[C@@H](O)[C@H](OC)C3)[C@H](C)[C@@H](O)CC1=O)[C@H](C)C[C@@H]2OC [tacrolimus], the “maintenance of ES cells in an undifferentiated state” value [2] was “ES cells are maintained in an undifferentiated state” and the “cell growth (fold increase of the cells)” value ([3]; tacrolimus added in addition to azakenpaullone and ID-8, FIG. 3B) was “notably accelerated”.

For O=C1Cc2c([nH]c3ccc(Br)cc23)-c2ncccc2N1 [1-azakenpaullone], the “maintenance of the ES cells (stability), among the GSK3β inhibitors” value [1] was “most stable manner” and the “cell growth (fold increase of the cells), comparison of GSK3β inhibitors” value ([3]; GSK3β inhibitor with ID-8 and tacrolimus, FIG. 3B) was “accelerates the cell growth more than kenpaullone”.

In the case of COc1ccc(-n2c(C)c([N+](=O)[O-])c3ccc(O)cc32)cc1 [ID-8], the “maintenance of the ES cells (stability), among the DYRK inhibitors” value ([1]; combined with 1-azakenpaullone 750 nM, ID-8 500 nM) is reported as “most stable manner”.
